Source: patent US10208012B2, “Compounds for treating inflammatory and hyperproliferative diseases” (Board of Regents, The University of Texas System, priority 2013, dated 2019)
Read-outs that look alike come from different tables or passages of the source.

How the values were obtained:
LY10 cells = assay: Annexin V apoptosis assay; type: cell-based; settings: 500 nM drug concentration, 24 hrs
Experimental: (§1) FIGS. 12A-C. TMX-1 induces apoptosis in lymphoma cells. (FIG. 12A) A representative lymphoma cell line (LY10) was treated with TMX-1 in a dose-dependent manner for 24 hrs. Apoptosis was determined by Annexin V assays. (FIG. 12B) TMX-1 activates phospho-H2AX (DNA damage marker) and induces bcl-2 cleaving in lymphoma cells. (FIG. 12C) A representative DLBCL cell line (MS) was transfected with a NF-kB-luciferase reporter for 24 hrs. Cells were treated with TMX-1 as indicated.
(§2) To determine whether TMX-1 can induce apoptosis in lymphoma cells, we treated a diffuse large cell lymphoma (DLBCL) cell line (LY-10) with TMX-1 in a dose-dependent manner for 24 hrs. Control and treated cells were analyzed for apoptosis using Annexin V assays. […] Next, we test whether TMX-1 can induces DNA damage in LY-10 cells. […] The inventors also examined whether TMX-1 can inhibit NF-kB activity in lymphoma cells. For these studies, a DLBCL cell line (MS) was transfected with a NF-kB luciferase reporter for 24 hrs, at which time cells were treated with TMX-1 in a dose- and time-dependent manner. […] There are many NF-kB inhibitors commercially available that have been tested in many cancer systems, but none has ever reached the clinic to cancer treatment. The reason for this is typically because these agents usually target upstream of NF-kB signaling pathways, leading to many unwanted side effects.

MS cells = assay: Sensitivity of doxorubicin-resistant DLBCL cells; type: cell-based
Experimental: (§3) FIG. 7. TMX-1 Targets NF-kB and Key Signaling Pathways in DLBCL to Overcome Chemoresistance. Top left, DLBCL cells (MS) were transfect with the 6×-NF-kB-luciferase expression vector for 24 hrs. Transfected cells were treated with PBS (control) or Lipo-TMX-1 (100 nM) for 4 hrs. Cell lysates were used to analyzed for luciferase activity that was normalized with b-gal activity. Top right, TMX-1 inhibited NIK and pAKT in NHL-B cells. MS cells were treated with increasing doses of Lipo-TMX-1 (0-500 nM) for 24 hrs. NIK and pAKT protein expressions were determined by Western blotting. Bottom, Doxorubicin resistant cells are sensitive to TMX-1. MS cells are resistant to Dox, but are sensitive to TMX-1. McA DLBCL cells are sensitive to both doxorubicin and TMX-1.

McA DLBCL cells = assay: Sensitivity of doxorubicin-sensitive DLBCL cells; type: cell-based
Experimental: as §3

[1] = tested on: mantle cell lymphoma cell lines (Mino and Z-138); assay: Thymidine incorporation proliferation assay in mantle cell lymphoma cell lines; type: cell-based
Experimental: (§4) FIG. 1. Effect of Tumeric Derivatives in MCL cells. Six TMX analogs were screened in two mantle cell lymphoma cell lines (Mino and Z-138). These assays were performed by treating cells with increasing doses of TMX (0-25 μM) and analyzed by thymidine incorporation (proliferation assay).
as §4, with “2.” for “1.”, “Turmerax Compounds” for “Tumeric Derivatives”, “MCLs. 10 additional” for “MCL cells. Six”, “analogs derived from compound #6 (from FIG. 1)” for “analogs”
FIG. 3. Effect of Turmerax Compounds in MCLs. Four compounds from FIG. 2 were selected to analyze at concentrations below 1 μM for cell growth inhibition in vitro.
Malignant lymphoma continues to represent a major health issue in the US and worldwide. Non-Hodgkin lymphomas (NHL) are a common, heterogeneous group of primarily (˜85%) B lymphoid cell neoplasms (NHL-B) arising in the B cell lineage of the human immune (lymphoid) system. NHL-Bs are the fifth most common cancer in the USA (˜65,000 new cases/25,000 deaths expected in 2010). Therefore, there is a great need for novel treatment strategies for this deadly cancer, particularly for relapsed/refractory lymphomas. Relapsed/refractory (r/rDLBCL) DLBCL is one of the most difficult scientific challenges and severe unmet therapeutic needs in clinical oncology today. This is due largely to very drug resistant tumor cells with very poor responses (<20% PR/CR) to current “salvage” therapies. Key pathways (NF-kB, AKT, STAT3), controlling cell growth/survival and chemoresistance in DLBCL have been discovered. Since natural compounds such as turmeric can target multiple pathways with low cellular toxicity, novel compounds with higher potency for cancer cells were sought. Initially, 6 novel turmeric analogues were designed and synthesized using cyclic thioketone and different substituted aromatic aldehydes. […] These compounds were named turmerax (TMX) (1-10), and tested them in the two resistant mantle cell lymphoma cell lines (Mino and Z-138). […] Turmerax compounds 1, 3, 5 and 9 were further analyzed at concentrations below 1 μM for cell growth inhibition in vitro. […] Next, the toxicity of these Turmerax compounds (1, 3, 5 and 9) was evaluated in normal human peripheral blood mononuclear cells (PBMC). […] The effectiveness of Turmerax compounds 1 and 5 in four MCL cell lines were examined, four LBCL cell lines (both ABC and GCB-type) and one follicular lymphoma cell line (CJ) in comparison to the wild type (natural) curcumin compound, to which these compounds bear some structural relatedness. The IC50 for Turmerax cmpds.

NIK = assay: Western blotting of NIK in MS cells; type: cell-based; settings: Lipo-TMX-1 0-500 nM, 24 hrs
Experimental: as §3

pAKT = assay: Western blotting of pAKT in MS cells; type: cell-based; settings: Lipo-TMX-1 0-500 nM, 24 hrs
Experimental: as §3

[2] = tested on: human DLBCL cell lines (Dox-sensitive and Dox-resistant); assay: 72-hr proliferation assays in doxorubicin-sensitive and -resistant DLBCL cell lines; type: cell-based
Experimental: FIGS. 13A-B. TMX-1 inhibits DLBCL cell proliferation. (FIG. 13A) 24 representative DLBCL cell lines were treated with TMX-1 in dose-dependent manner and analyzed by thymidine incorporation assays for cell growth inhibition. (FIG. 13B) Effect of TMX-1 in doxorubicin highly sensitive and highly resistant DLBCL cell lines (Pham et al., 2011).
DLBCL are currently initially treated fairly successfully with R-CHOP frontline chemotherapy (˜70-80% initial remission rate), but relapsed/refractory DLBCL occurs frequently (˜40% within 2-3 yrs), with very poor salvage therapy options (˜20% PR/CR). A unique repertoire of human DLBCL cell lines were developed (Ford et al., 1990; Pham et al., 2010) that can be classified into two subgroups, doxorubicin (a key component in CHOP)-sensitive and doxorubicin-resistant. These cell lines were screened against TMX-1 in a dose-dependent manner using 72-hr proliferation assays (FIG. 13A).

pH2AX = assay: DNA damage marker in LY-10 cells; type: cell-based
Experimental: as §1, §2

[3] = Water solubility, suspended in water for 24 hrs; type: physicochemical
Source text: FIG. 8. Water Solubility of Lipo-Turmerax-1 Compound. Liposomal TMX-1 and TMX-1 compounds were suspended in water for 24 hrs.
(§5) These formulations may be used in further clinical trials.

[4] = tested on: melanoma, gastric, pancreatic, and glioma cancer cell lines; assay: MTT cell growth inhibition in NF-kB-associated solid tumor cancer cell lines; type: cell-based
Source text: FIG. 11. Effect of TMX-1 in NF-kB-Associated Cancers. Representative cancer cell lines for melanoma, gastric, pancreatic, and glioma were used to analyzed for cell growth inhibition activity of TMX-1 using MTT assays.
as §5

Bio-availability in vivo = assay: Bio-availability in vivo
Source text: as §5

DLBCL cell line (TJ) = assay: Combination cell proliferation assays in DLBCL cell line (TJ); type: cell-based; settings: TJ cells
Experimental: FIGS. 14A-B. A representative DLBCL cell line (TJ) was treated with TMX-1 in a dose-dependent manner alone or in combination with Ibrutinib (IB) and carfilzomib (CFZ) and cell proliferation assays were analyzed.
Recent molecularly targeted therapy, as opposed to classic chemotherapy, has improved the treatment of lymphoid malignancies. At the forefront of clinical development are ibrutinib, an inhibitor of Bruton's tyrosine kinase (btk) and carfilzomib (CFZ), a second-generation proteasome inhibitor.

[5] = tested on: normal human peripheral blood mononuclear cells (PBMC); assay: Cytotoxicity in normal PBMC by thymidine incorporation; type: cell-based; settings: minimal toxicity stated for drug concentration below 600 nM
Source text: FIG. 4. Effect of Turmerax compounds in normal peripheral blood mononuclear cells (PBMC). Turmeric analogues (1, 3, 5, and 9) were evaluate for cytoxicity in normal human peripheral blood mononuclear cells (PBMC) by thymidine incorporation assays.
Malignant lymphoma continues to represent a major health issue in the US and worldwide. Non-Hodgkin lymphomas (NHL) are a common, heterogeneous group of primarily (˜85%) B lymphoid cell neoplasms (NHL-B) arising in the B cell lineage of the human immune (lymphoid) system. NHL-Bs are the fifth most common cancer in the USA (˜65,000 new cases/25,000 deaths expected in 2010). Therefore, there is a great need for novel treatment strategies for this deadly cancer, particularly for relapsed/refractory lymphomas. Relapsed/refractory (r/rDLBCL) DLBCL is one of the most difficult scientific challenges and severe unmet therapeutic needs in clinical oncology today. This is due largely to very drug resistant tumor cells with very poor responses (<20% PR/CR) to current “salvage” therapies. Key pathways (NF-kB, AKT, STAT3), controlling cell growth/survival and chemoresistance in DLBCL have been discovered. Since natural compounds such as turmeric can target multiple pathways with low cellular toxicity, novel compounds with higher potency for cancer cells were sought. Initially, 6 novel turmeric analogues were designed and synthesized using cyclic thioketone and different substituted aromatic aldehydes. […] These compounds were named turmerax (TMX) (1-10), and tested them in the two resistant mantle cell lymphoma cell lines (Mino and Z-138). […] Turmerax compounds 1, 3, 5 and 9 were further analyzed at concentrations below 1 μM for cell growth inhibition in vitro. […] Next, the toxicity of these Turmerax compounds (1, 3, 5 and 9) was evaluated in normal human peripheral blood mononuclear cells (PBMC). […]

bcl-2 = bcl-2 cleaving in LY-10 cells; type: cell-based
Experimental: as §1, §2

[6] = Mino and Z-138, doses 0-25 μM, thymidine incorporation, read-out: IC50, cell growth inhibition
[7] = further analyzed at concentrations below 1 μM, read-out: IC50, cell growth inhibition

SMILES: N#Cc1cccc(/C=C2\CSC/C(=C\c3cccc(C#N)c3)C2=O)c1 [Turmerax 1, 3,5-bis[(3-cyanophenyl)methylene]-tetrahydrothiopyran-4-one]
- apoptosis induced (LY10 cells): up to 80%
- sensitivity of MS cells (MS cells): sensitive
- sensitivity of McA DLBCL cells (McA DLBCL cells): sensitive
- IC50 [1, 6]: < 1 µM
- IC50 [1, 7]: 0.1 to 0.2 µM
- NIK protein expression (NIK): inhibited
- pAKT protein expression (pAKT): inhibited
- activity in Dox-sensitive vs. Dox-resistant DLBCL cell lines [2]: equivalent
- pH2AX (DNA damage marker) (pH2AX): significantly increased
- precipitation in water [3]: shows precipitation
- inhibition of solid tumor cancer cells [4]: highly effective
- bio-availability (Bio-availability in vivo): reduced bio-availability
- effectiveness of combination with ibrutinib compared with combination with CFZ (DLBCL cell line (TJ)): more effective than TMX-1 in combination with CFZ
- interaction with ibrutinib in inhibiting lymphoma cell growth (DLBCL cell line (TJ)): highly synergistic
- toxicity to PBMC [5]: only minimal cell toxicity
- bcl-2 anti-apoptotic protein (bcl-2): cleaved

SMILES: O=C1/C(=C/c2ccc(Cl)c(Cl)c2)CSC/C1=C\c1ccc(Cl)c(Cl)c1 [Turmerax 2, 3,5-bis[(3,4-dichlorophenyl)methylene]-tetrahydrothiopyran-4-one]
- IC50 [1, 6]: 3 to 10 µM

SMILES: O=C1/C(=C/c2ccc([N+](=O)[O-])c(O)c2)CSC/C1=C\c1ccc([N+](=O)[O-])c(O)c1 [Turmerax 3, 3,5-bis[(3-hydroxy-4-nitrophenyl)methylene]-tetrahydrothiopyran-4-one]
- IC50 ([1]; read-out: IC50, cell growth inhibition, Mino and Z-138, doses 0-25 μM, thymidine incorporation): < 1 µM
- IC50 ([1]; read-out: IC50, cell growth inhibition, further analyzed at concentrations below 1 μM): 0.2 to 0.8 µM
- toxicity to PBMC [5]: only minimal cell toxicity

SMILES: COc1ccc(/C=C2\CSC/C(=C\c3ccc(OC)c(OC)c3OC)C2=O)c(OC)c1OC [Turmerax 4, 3,5-bis[(2,3,4-trimethoxyphenyl)methylene]-tetrahydrothiopyran-4-one]
- IC50 [1, 6]: > 25 µM

SMILES: O=C1/C(=C/c2ccc(Cl)c([N+](=O)[O-])c2)CSC/C1=C\c1ccc(Cl)c([N+](=O)[O-])c1 [Turmerax 5, 3,5-bis[(3-nitro-4-chlorophenyl)methylene]-tetrahydrothiopyran-4-one]
- IC50 [1, 6]: < 1 µM
- IC50 [1, 7]: 0.1 to 0.2 µM

SMILES: CCOC(=O)c1ccc(/C=C2\CSC/C(=C\c3ccc(C(=O)OCC)cc3)C2=O)cc1 [Turmerax 6, 3,5-bis[(4-ethoxycarbonylphenyl)methylene]-tetrahydrothiopyran-4-one]
- IC50 [1, 6]: 3 to 10 µM

SMILES: COc1ccc(/C=C2\CSC/C(=C\c3ccc(OC)c(C)c3C)C2=O)c(C)c1C [Turmerax 7, 3,5-bis[(3,4-dimethyl-4-methoxyphenyl)methylene]-tetrahydrothiopyran-4-one]
- IC50 [1, 6]: > 25 µM

SMILES: O=C1/C(=C/c2c(F)ccc(Cl)c2F)CSC/C1=C\c1c(F)ccc(Cl)c1F [Turmerax 8, 3,5-bis[(2,6-difluoro-3-chlorophenyl)methylene]-tetrahydrothiopyran-4-one]
- IC50 [1, 6]: > 25 µM

SMILES: N#Cc1ccc(/C=C2\CSC/C(=C\c3ccc(C#N)cc3)C2=O)cc1 [Turmerax 9]
- IC50 [1, 6]: < 1 µM
- IC50 [1, 7]: 0.2 to 0.8 µM
- toxicity to PBMC [5]: some toxicity

SMILES: O=C1/C(=C/c2ccc(Br)cc2)CSC/C1=C\c1ccc(Br)cc1 [Turmerax 10, 3,5-bis[(4-bromophenyl)methylene]-tetrahydrothiopyran-4-one]
- IC50 [1, 6]: 3 to 10 µM

SMILES: COc1cccc2c1C(=O)c1c(O)c3c(c(O)c1C2=O)C[C@@](O)(C(=O)CO)C[C@@H]3O[C@H]1C[C@H](N)[C@H](O)[C@H](C)O1 [doxorubicin, reference compound]
- sensitivity of MS cells (MS cells): resistant
- sensitivity of McA DLBCL cells (McA DLBCL cells): sensitive
